{"source": "patent US9018391B2", "about": "“Inhibitors of beta-secretase” (Boehringer Ingelheim International GmbH, priority 2012, dated 2015)", "key": {"hERG channel": {"molecular_target": "hERG channel (Homo sapiens (Human), UniProt Q12809)", "sequence (Q12809 whole entry)": "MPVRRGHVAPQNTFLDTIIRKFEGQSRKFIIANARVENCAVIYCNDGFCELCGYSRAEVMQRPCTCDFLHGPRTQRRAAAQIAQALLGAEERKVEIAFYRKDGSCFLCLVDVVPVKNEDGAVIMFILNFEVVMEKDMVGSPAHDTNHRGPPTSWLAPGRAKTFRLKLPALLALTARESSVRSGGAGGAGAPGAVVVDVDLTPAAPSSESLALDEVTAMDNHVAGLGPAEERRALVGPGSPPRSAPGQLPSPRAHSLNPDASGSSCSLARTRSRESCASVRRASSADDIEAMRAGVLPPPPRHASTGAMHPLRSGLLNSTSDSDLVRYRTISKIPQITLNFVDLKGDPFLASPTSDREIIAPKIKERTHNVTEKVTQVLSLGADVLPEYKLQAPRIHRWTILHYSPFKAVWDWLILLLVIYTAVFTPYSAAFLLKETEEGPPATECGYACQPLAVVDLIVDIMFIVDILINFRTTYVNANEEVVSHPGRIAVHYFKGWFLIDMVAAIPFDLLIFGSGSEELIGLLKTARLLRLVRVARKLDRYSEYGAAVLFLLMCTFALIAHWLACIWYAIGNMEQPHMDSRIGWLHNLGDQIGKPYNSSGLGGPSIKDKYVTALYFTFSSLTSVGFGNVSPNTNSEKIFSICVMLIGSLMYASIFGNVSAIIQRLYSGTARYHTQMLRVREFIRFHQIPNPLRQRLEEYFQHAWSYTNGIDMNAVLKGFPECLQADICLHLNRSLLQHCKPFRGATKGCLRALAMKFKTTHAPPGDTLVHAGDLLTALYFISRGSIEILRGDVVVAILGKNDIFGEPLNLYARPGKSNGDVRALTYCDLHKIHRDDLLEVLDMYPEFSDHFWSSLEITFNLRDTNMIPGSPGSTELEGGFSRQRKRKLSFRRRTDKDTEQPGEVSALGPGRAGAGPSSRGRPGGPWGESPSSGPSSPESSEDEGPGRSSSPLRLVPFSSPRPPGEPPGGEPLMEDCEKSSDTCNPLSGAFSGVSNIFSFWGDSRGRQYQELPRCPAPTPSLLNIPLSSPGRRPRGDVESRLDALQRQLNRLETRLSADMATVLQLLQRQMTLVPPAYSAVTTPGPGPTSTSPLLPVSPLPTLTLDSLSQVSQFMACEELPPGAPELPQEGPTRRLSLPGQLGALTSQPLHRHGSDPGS", "test": "hERG-Channel Assay (Assay 2), whole-cell patch clamp in HEK293 cells stably transfected with hERG cDNA", "assay_type": "cell-based", "conditions": "for % Inhibition hERG @ 10 μM (assay 2): 35° C.; for inhibition at 10 µM: human, HEK293 cells stably transfected with hERG cDNA, pH 7.4, 35° C.", "text": "hERG-Channel Assay (Assay 2)\nCells: HEK (human embryonic kidney) 293 cells were stably transfected with hERG cDNA.\nCells were superfused with a bath solution containing (mM): NaCl (137), KCl (4.0), MgCl2 (1.0), CaCl2 (1.8), Glucose (10), HEPES (10), pH 7.4 with NaOH. Patch pipettes were made from borosilicate glass tubing using a horizontal puller and filled with pipette solution containing (mM): K-aspartate (130), MgCl2 (5.0), EGTA (5.0), K2ATP (4.0), HEPES (10.0), pH 7.2 with KOH. Resistance of the microelectrodes was in the range between 2 and 5 MΩ.\nStimulation and Recording:\nMembrane currents were recorded using an EPC-10 patch clamp amplifier and PatchMaster software. hERG-mediated membrane currents were recorded at 35° C., using the whole-cell configuration of the patch-clamp technique. Transfected HEK293 cells were clamped at a holding potential of −60 mV and hERG-mediated inactivating tail currents were elicited using a pulse pattern with fixed amplitudes (activation/inactivation: 40 mV for 2000 ms; recovery: −120 mV for 2 ms; ramp to 40 mV in 2 ms; inactivating tail current: 40 mV for 50 ms) repeated at 15 s intervals. During each inter-pulse interval, 4 pulses scaled down by a factor of 0.2 were recorded for a P/n leak subtraction procedure. Rs compensation was employed up to a level that safely allowed recording devoid of ringing.\nCompound Preparation and Application:\nThe different concentrations of the test compounds were applied sequentially on each of the different cells investigated. A steady state level of baseline current was measured for at least 6 sweeps prior to the application of the first test compound concentration.\nThe test compound was dissolved in DMSO to yield a master stock solution which was diluted further in DMSO to stock solutions needed for the lower concentrations. Final dilutions in extracellular buffer were prepared freshly from these stocks by a 1:1000 dilution step each before starting the experiments.\nPeak current amplitudes were measured 3 ms after the ramp to +40 mV. For baseline and each concentration, the peak currents of the three last sweeps before application of the next concentration were averaged. Residual currents (I/I0) were calculated for each cell as the fraction of actual average peak current and average baseline peak current."}, "Human Hepatocytes": {"test_system": "Human Hepatocytes", "test": "In Vitro Hepatocyte Stability Assay (Assay 4)", "assay_type": "in vitro ADME", "conditions": "predicted blood clearance as percent of hepatic blood flow", "method": "In Vitro Hepatocyte Stability Assay (Assay 4)\nThe metabolic degradation of test compounds was assayed in a hepatocyte suspension. Cryopreserved hepatocytes were incubated in an appropriate buffer system (e.g., Dulbecco's modified eagle medium plus 3.5 μg glucagon/500 mL, 2.5 mg insulin/500 mL and 3.75 mg/500 mL hydrocortison) containing 5% species serum. Following a 30 min preincubation in an incubator (37° C., 10% CO2), 5 μl of test compound solution (80 μM; from 2 mM in DMSO stock solution diluted 1:25 with medium) were added into 395 μl hepatocyte suspension (cell density in the range 0.25−5×10^6 cells/mL, typically 1×10^6 cells/mL; final concentration of test compound final DMSO concentration […]).\nThe cells were incubated for six h (incubator, orbital shaker) and samples (25 μl) were taken at 0, 0.5, 1, 2, 4 and 6 h. Samples were transferred into acetonitrile and pelleted by centrifugation (5 min). The supernatant was transferred to a new 96 DeepWell™ plate, evaporated under nitrogen and resuspended. Decline of compound was analyzed by HPLC-MS/MS. CLint (in vitro hepatic intrinsic clearance) was calculated as follows: CLint=Dose/AUC=(C0/CD)/(AUD+Clast/k)×1000/60\nC0: initial concentration in the incubation [μM];\nCD: cell density of vital cells [cells/mL];\nAUD: area under the data [μM×h];\nClast: concentration of last data point [μM];\nk: slope of the regression line for compound decline [h^−1].\nThe calculated in vitro hepatic intrinsic clearance was scaled up to the intrinsic in vivo hepatic clearance (Clint in vivo) and used to predict hepatic in vivo blood clearance (CL) by the use of a liver model (well-stirred model), as follows: CLint,in vivo[mL/min/kg]=(CLint[μL/min/10^6 cells]×hepatocellularity[10^6 cells/g liver]×liver factor [g/kg body weight])/1000 CL[mL/min/kg]=CLint,to vivo×hepatic blood flow[ml/min/kg]/(CLint,in vivo[ml/min/kg]+hepatic blood flow[mL/min/kg])\nThe in vivo blood clearance was transformed into percent of the hepatic blood flow (% Qh): % Qh=CL[mL/min/kg]/hepatic blood flow[mL/min/kg])×100\nHepatocellularity, human: 1.2×10^7 cells/g liver;\nLiver factor, human: 25.7 g/kg body weight;\nHepatic blood flow, human: 21 mL/(min×kg)."}, "[1]": {"test_system": "human hematopoetic U937 cell line", "test": "In Vitro Phospholipidosis Assay (Assay 3), Nile red staining", "assay_type": "cell-based", "conditions": "first effect concentration; U937 cells, 48 h; read-out: Phospholipidosis FEC IC50 μM (assay 3)", "method": "(§1) In Vitro Phospholipidosis Assay (Assay 3)\n(§2) The phospholipidogenic potential of test compounds was assayed using the human hematopoetic U937 cell line. The test principle was to analyze the phospholipid content by staining the cells with the fluorescent dye Nile red.\n(§3) U937 cells were seeded into cell culture plates at 0.5×10^6 cells/mL in RPMI medium containing 10% FBS, 1% DMSO, and 0.005% gentamicin. The cells were cultivated with or without different concentrations of test compound for 48 h under standard culture conditions.\n(§4) For harvesting, the cells were centrifuged at 130×g for 4 min and washed once with PBS. Then, 2×0.5 mL cell suspensions were prepared for non-fixed cell measurement (0.5 mL for propidium iodide (PI) viability measurement and 0.5 mL for Nile red measurement).\n(§5) The remaining cells were fixed with 3.7% formaldehyde for 30 min. After a further centrifugation step, cells were resuspended with 1.3 mL Nile red working solution (1 μg/mL) and incubated for 5 min at rt. The cell suspension was washed twice with 3 mL PBS and centrifuged with 130×g for 4 min. The supernatant was discarded and the cells were resuspended with 0.5 mL PBS and kept for flow cytometry measurement.\n(§6) For Nile red staining of the 0.5 mL non-fixed cell samples, 50 μL of a ready to use Nile red solution (10 μg/mL) were added per sample. Samples were kept on ice for 5 min. Thereafter, they were washed once with 4 mL PBS (4° C., 250×g for 8 min) and finally resuspended in 400 μL PBS and kept for flow cytometry measurement.\n(§7) For the viability measurement, 12.5 μL of the ready to use PI solution (10 μg/mL) were added to the 0.5 mL non-fixed cell suspension. After 15 min of incubation on ice, the samples were measured by flow cytometry using a Coulter Epics XL/MCL flow cytometer.\n(§8) The viability of the cells of each sample was determined by flow cytometry measurement of the PI content at channel 2 (568-590 nm). Cut-off gates for the fluorescence-dependent differentiation between live and dead cells were defined based on the analysis of cell culture medium control samples.\n(§9) Only samples with a cell viability of >=90% relative to control samples were analyzed for phospholipidosis. Each Nile red sample (non-fixed and fixed samples) was measured by flow cytometry at channel 1 (504-541 nm) and channel 4 (660-680 nm).\n(§10) For each channel, relative Nile red fluorescence intensity of a test sample was calculated compared to control samples and expressed as a percentage of control fluorescence intensity. The assessment of the phospholipidogenic potential and the first effective concentration (FEC) of a test compound was done manually based on the fluorescence intensities at both wavelengths for the fixed cells, as well as for the non-fixed cells."}, "[2]": {"molecular_target": "truncated human beta-secretase, BACE1 (amino acids 1-454) (Homo sapiens (Human), UniProt P56817)", "sequence (P56817 22-454)": "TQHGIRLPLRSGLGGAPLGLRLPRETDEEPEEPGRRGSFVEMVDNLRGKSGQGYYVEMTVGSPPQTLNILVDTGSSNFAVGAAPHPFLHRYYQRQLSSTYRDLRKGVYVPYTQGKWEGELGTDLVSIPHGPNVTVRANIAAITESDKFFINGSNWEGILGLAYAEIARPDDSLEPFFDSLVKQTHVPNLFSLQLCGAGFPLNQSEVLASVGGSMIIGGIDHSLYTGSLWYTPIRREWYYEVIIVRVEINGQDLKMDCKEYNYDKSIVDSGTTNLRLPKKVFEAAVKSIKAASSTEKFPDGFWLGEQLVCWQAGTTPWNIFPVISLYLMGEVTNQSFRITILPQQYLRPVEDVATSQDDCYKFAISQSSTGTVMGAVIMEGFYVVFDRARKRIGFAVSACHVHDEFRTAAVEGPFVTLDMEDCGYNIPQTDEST", "test": "BACE1 Assay (Assay 1), fluorescence quench assay", "assay_type": "biochemical", "conditions": "pH 4.4", "method": "The substrate was dissolved at 1 mg/ml in DMSO.\nThe assay was performed in the presence of OptiMEM™ (supernatant collected over 24 h and cleared from cellular debris by centrifugation) containing the ectodomain of BACE1, 25 μl water containing the desired 2-fold concentration of test compound and 2% DMSO, 1 μM substrate peptide, 20 mM NaOAc, pH 4.4, and 0.04% Triton-X100 in a total assay volume of 50 μl in a 384 well plate. In general, 25 μl of compound dilution were added to the plate followed by the addition of 10 μl of BACE1 containing OptiMEM™ diluted 1:10 in water with 0.2% Triton X-100. The reaction was started with the addition of 15 μl substrate in NaOAc buffer. The reaction was incubated at rt (dark) in an Envision® multilabel reader (Perkin Elmer) and the cleavage of the substrate was recorded as kinetic for […] at ex: 485 nm, em: 538 nm. Blank wells containing no enzyme were included on each plate.\nThe intensity of fluorescence was regressed against time in order to derive velocities of reaction in all 384 wells. These velocities were used for calculating percent control using an uninhibited control containing 1% DMSO as 100% and a blank control performed in the absence of enzyme as 0%. IC50 values were calculated by fitting percent control vs. test compound concentration using Assay Explorer®."}, "[3]": {"test": "In Vitro Phospholipidosis Assay (Assay 3), Nile red staining", "assay_type": "cell-based, human", "conditions": "human, first effect concentration, U937 cells, read-out: Phospholipidosis FEC IC50 μM (assay 3)", "method": "as §1, §2, §3, §4, §5, §6, §7, §8, §9, §10"}}}
{"smiles": "COC1CCC2(CC1)Cc1ccc(C#N)cc1[C@]21N=C(N)N(C)C1=O", "note": "(stereo partly drawn) [drawing 18, reference compound]", "values": [{"measurement": "% Inhibition hERG @ 10 μM (assay 2)", "setting": "hERG channel", "result": 90, "unit": "%"}, {"measurement": "In vitro Human Hepatocytes % Qh @ 1 μM (assay 4)", "setting": "Human Hepatocytes", "result": 14, "unit": "% Qh"}, {"measurement": "IC50", "setting": "[1]", "result": 400, "unit": "µM"}]}
{"smiles": "C[C@H]1C[C@@]2(CC[C@@H]1O)Cc1ccc(C#N)cc1[C@]21N=C(N)N(CC2CC(F)(F)C2)C1=O", "note": "[Example 13]", "values": [{"measurement": "inhibition at 10 µM", "setting": "hERG channel", "result": 12, "unit": "%"}, {"measurement": "IC50", "setting": "[2]", "result": 8.7, "unit": "nM"}, {"measurement": "In vitro Human Hepatocytes % Qh @ 1 μM (assay 4)", "setting": "Human Hepatocytes", "result": 4.2, "unit": "% Qh"}, {"measurement": "IC50 at 48 h", "setting": "[3]", "result": 200, "unit": "µM"}]}
{"smiles": "COC1CCC2(CC1)Cc1ccc(C#N)cc1[C@]21N=C(N)N(C)C1=O", "note": "(stereo partly drawn) [drawing 15, reference compound]", "values": [{"measurement": "% Inhibition hERG @ 10 μM (assay 2)", "setting": "hERG channel", "result": 90, "unit": "%"}, {"measurement": "In vitro Human Hepatocytes % Qh @ 1 μM (assay 4)", "setting": "Human Hepatocytes", "result": 14, "unit": "% Qh"}, {"measurement": "IC50", "setting": "[1]", "result": 400, "unit": "µM"}]}
{"smiles": "C[C@@H]1CC2(Cc3ccc(Cl)cc3[C@]23N=C(N)N(Cc2ncccn2)C3=O)C[C@H](C)[C@H]1O", "note": "(stereo partly drawn) [Example 11]", "values": [{"measurement": "inhibition at 10 µM", "setting": "hERG channel", "result": 19, "unit": "%"}, {"measurement": "IC50", "setting": "[2]", "result": 14.6, "unit": "nM"}, {"measurement": "In vitro Human Hepatocytes % Qh @ 1 μM (assay 4)", "setting": "Human Hepatocytes", "result": 0, "unit": "% Qh"}, {"measurement": "IC50 at 48 h", "setting": "[3]", "result": 200, "unit": "µM"}]}
{"smiles": "COCCCOc1ccc2c(c1)C1(N=C(N)N(CC(F)F)C1=O)[C@]1(CC[C@H](OC)CC1)C2", "note": "(stereo partly drawn) [reference compound]", "values": [{"measurement": "inhibition at 10 µM", "setting": "hERG channel", "result": 36, "unit": "%"}, {"measurement": "IC50", "setting": "[2]", "result": 7.3, "unit": "nM"}, {"measurement": "In vitro Human Hepatocytes % Qh @ 1 μM (assay 4)", "setting": "Human Hepatocytes", "result": 43, "unit": "% Qh"}, {"measurement": "IC50 at 48 h", "setting": "[3]", "result": 50, "unit": "µM"}]}
